Assay [1] has as its system Penicillium expansum (PENIEX) on table grapes. Kind of assay: In vivo disease severity on wound-inoculated table grapes, benzoxaborole and CO2 chamber treatment. To be noted: Table 16, 12% CO2 alone, evaluated 1 day after treatment, fan continuous. An excerpt: (§1) The following experiments were used to determine synergy between benzoxaborole Compounds A, B, and/or C and preservative gases, such as carbon dioxide (CO2) and sulfur dioxide (SO2). Specific rates or any other unique conditions are noted within the corresponding results tables. Each experiment comprised an air-tight 36 liter (L) chamber (Fisher Scientific, P/N: 08-642-23C), fitted with a bulkhead septum port (Swagelok, P/N: SS-400-61, Solon, OH) used for treatment delivery, as well as for monitoring (using needle extraction) carbon dioxide (CO2), sulfur dioxide (SO2), oxygen (O2) or other headspace samples. A variable speed fan (Thermaltake, Mobile Fan II, P/N: A1888, Taipei City, Taiwan) set to low was also used to circulate the headspace atmosphere.
(§2) Similarly, table grape fruits were also tested in vivo. More specifically, 16-20 table grapes per repetition were washed and inoculated with pathogens (as described above for the strawberries). However, an ethanol-sterilized push pin, rather than a T15 screwdriver, was used to wound the stem-end of the grapes. The grapes were inoculated in the wound, and then arranged inside a 1-pint clamshell.
(§3) For treatment, the inoculated agar plates and clamshells containing fruits (e.g., strawberries and grapes) were placed inside a 36 L experimental chamber unit, which was then sealed prior to commencement of compound treatments. The chamber remained sealed throughout the duration of the experiment except for addition of treatment to the chamber, and post-treatment ventilation.
(§4) Benzoxaborole Compound A or Compound B was dissolved in acetone and dispensed onto a 60 mm Whatman #1 filter paper disk using a pipette. The acetone was permitted to evaporate for five minutes before the disk was placed on a watch glass in each chamber.
(§5) A 12% CO2 headspace treatment was then established in the chamber by permitting 10 grams (g) of crushed dry ice placed in a weigh boat in the chamber to evaporate in the sealed chamber. However, the bulkhead port of the chamber was loosened to permit the release of internal pressure. Optionally, a fan was used during the initial hours of treatment (i.e., up to about 6 hours of treatment) to ensure uniform treatment exposure of fruits and plates.
(§6) Untreated controls and CO2 treated chambers contained an acetone-treated disk with similar evaporation for five minutes. CO2 and O2 levels in the chamber were monitored using a handheld gas detector (Dansensor Checkpoint II; P/N 600111, Ringsted, Denmark). Temperature and relative humidity were also monitored within the chamber using data loggers (Onset HOBO; P/N U12-013, Bourne, MA).
(§7) The chamber for all in vitro and in vivo experiments was held at room temperature (i.e., from about 21° C. to about 23° C.) typically for about 3.5 days (i.e., about 84 hours) of treatment exposure. Chambers were then vented. After an additional 2-3 days with the chamber at room temperature, post-treatment radial growth (in mm) of each in vitro pathogen (see Examples 1-7, Tables 1-7) was measured on the inoculated plates using electronic calipers (Mitutoyo, P/N: CD-6-CX, Aurora, IL). In addition, the point of inoculation on fruits was assessed for indication of in vivo disease incidence (e.g., yes or no) and severity of disease incidence (see Examples 8-16, Tables 8-16). Disease severity was rated on a scale ranging from 0 to 4, where “0” indicated no disease severity, “1” indicated minimal disease severity, “2” indicated medium disease severity, “3” indicated high disease severity, and “4” indicated exceptionally high disease severity. […]

Assay [2] relates to Botrytis cinerea (BOTRCI) on table grapes. The assay is described as above. To be noted: Table 15, 12% CO2 alone, evaluated 1 day after treatment, fan continuous.
Description: as §1, §2, §3, §4, §5, §6, §7

Assay [3] concerns Botrytis cinerea (BOTRCI). Kind of assay: In vitro fungal growth on inoculated agar plates, benzoxaborole and CO2 chamber treatment. It is filed as cell-based.
Description: as §1
(§8) In vitro and in vivo experiments were performed concurrently in triple replicates (i.e., triplicate) unless otherwise noted. For in vitro experiments, a single 6-well microtiter plate or three, 10-cm petri plates each containing half strength Potato Dextrose Agar were prepared. Each well or plate was inoculated with 1 microliter (μL) of 1×10^5 spores/ml of the appropriate pathogenic spore suspension (e.g., Botrytis cinerea, BOTRCI; Penicillium expansum, PENIEX; Mucor piriformis, MUCOPI; Fusarium sambucinum FUSASA; or Aspergillus brasiliensis, ASPEBR). The inoculated microtiter or petri plates were then sealed with a breathable film (AeraSeal; P/N: B-100, Excel Scientific, Victorville, CA).
as §3, §4, §5, §6, §7

Assay [4] concerns Penicillium expansum (PENIEX). The description is as above. Format: cell-based.
Description: as §1, §8, §3, §4, §5, §6, §7

The test system of assay [5] is Fusarium sambucinum (FUSASA). The assay is described as above. Format: cell-based.
Description: as §1, §8, §3, §4, §5, §6, §7

The subject of assay [6] is Aspergillus brasiliensis (ASPEBR). Described as above. Format: cell-based.
Description: as §1, §8, §3, §4, §5, §6, §7

In assay [7] the test system is Mucor piriformis (MUCOPI). Described as above. It is filed as cell-based. To be noted: Table 3, 12% CO2 alone, evaluated 2 days after treatment, 6-well microtiter plate, fan first 6 hours, >90% R.H.
Description: as §1, §8, §3, §4, §5, §6, §7

In assay [8] the test system is Botrytis cinerea (BOTRCI) on strawberries. Kind of assay: In vivo disease severity on wound-inoculated strawberries, benzoxaborole and CO2 chamber treatment.
Description: as §1
(§9) For in vivo experiments, eight strawberry fruits per repetition were surface sterilized with a 70% ethanol solution. After sterilization, the strawberries were rinsed twice with deionized water. Each strawberry fruit was wounded using a T15 screwdriver tip to a uniform depth of eight mm (8 mm). Each fruit wound was inoculated with 20 μL of 1×10^5 spores/ml pathogen spore suspension of B. cinerea or M. piriformis. The strawberries were then placed with the stem facing downwards inside a 1-pound strawberry clamshell.
as §3, §4, §5, §6, §7

Assay [9] concerns Mucor piriformis (MUCOPI) on strawberries. The description is as above. The note with it: Table 10, 12% CO2 alone, evaluated 2 days after treatment, fan first 6 hours, >90% R.H.
Description: as §1, §9, §3, §4, §5, §6, §7

Setting [10] is: Table 1, 12% CO2 alone, evaluated 2 days after treatment completion, 6-well microtiter plate, 4 replicates, fan first 6 hours.
The mark [11] stands for this setting: Table 4, 12% CO2 alone, evaluated 2 days after treatment completion, 6-well microtiter plate, fan first 6 hours.
Setting [12] is: Table 5, 12% CO2 alone, evaluated 2 days after treatment, 6-well plate, fan first 6 hours, >90% R.H.
The mark [13] stands for this setting: Table 5, compound 0.14 mg/L + 12% CO2, Colby equation E=x+y−x*y/100.
Setting [14] is: Table 5, compound 0.14 mg/L + 12% CO2, evaluated 2 days after treatment, 6-well plate, fan first 6 hours, >90% R.H.
The mark [15] stands for this setting: Table 5, compound alone 0.14 mg/L, evaluated 2 days after treatment, 6-well plate, fan first 6 hours, >90% R.H.

In the case of `O=C=O` [CO2, carbon dioxide], the “Growth (Severity, 0 to 4) 12% CO2” value in assay [1] is on record as 1.9; in assay [2] it was 1.4; in [8] (Table 8, 12% CO2 alone, evaluated 2 days after treatment, 4 replicates, fan first 6 hours, >90% R.H.) it was 3.7; in assay [8] (Table 9, 12% CO2 alone, evaluated 3 days after treatment, fan first 6 hours, >90% R.H.), 3.5; in [8] (Table 11, 12% CO2 alone, evaluated 2 days after treatment, fan first 6 hours, >90% R.H.), 2.7; in assay [8] (Table 12, 12% CO2 alone, evaluated 2 days after treatment, fan first 6 hours, >90% R.H.) it was 3.4. Further, the “Growth (Severity, 0 to 4) 12% CO2” value amounted to 3.2 in assay [8] (Table 13, 12% CO2 alone, evaluated 3 days after treatment, fan run continuously); 3.9 in assay [8] (Table 14, 12% CO2 alone, evaluated 3 days after treatment, fan continuous); 3.0 in assay [9]. Also, the “Growth (diameter, mm) 12% CO2” value in [3] (setting [10]) is listed as 28.0 mm; in [3] (Table 3, 12% CO2 alone, evaluated 2 days after treatment, 6-well microtiter plate, fan first 6 hours, >90% R.H.), 30.9 mm; in [3] (setting [11]) it was 33.4 mm; in assay [3] (setting [12]), 35.0 mm; in assay [3] (Table 6, 12% CO2 alone, evaluated 3 days after treatment, 10 cm petri plates, fan continuous), 78.9 mm; in [4] (setting [10]), 18.6 mm. In addition, the “Growth (diameter, mm) 12% CO2” value in assay [4] (Table 2, 12% CO2 alone, evaluated 2 days after treatment, 6-well microtiter plate, fan first 6 hours, >90% R.H.) is 21.3 mm; in assay [4] (setting [11]), 21.2 mm; in [4] (setting [12]), 19.9 mm; in assay [4] (Table 7, 12% CO2 alone, evaluated 3 days after treatment, 10 cm Petri plates, fan continuous) it was 25.8 mm; in assay [5] (setting [12]) it was 33.9 mm; in assay [6] (setting [12]), 26.2 mm. In [7], the “Growth (diameter, mm) 12% CO2” value is on record as 35.0 mm.

For the compound `Fc1ccc2c(c1)COB2OCCOB1OCc2cc(F)ccc21` [Compound B], the “Colby Calculation” value in assay [3] (setting [13]) is reported as 103.4; in [4] (setting [13]) it was 102.4; in assay [5] (setting [13]), 100.4; in assay [6] (setting [13]), 112.0; in assay [8] (Table 11, compound 0.14 mg/L + 12% CO2, Colby equation E=x+y−x*y/100), 105.0; in [8] (Table 12, compound 0.14 mg/L + 12% CO2, Colby equation E=x+y−x*y/100) it was 100.9. In addition, the “Growth (diameter, mm) Cmpd + 12% CO2” value in [3] (setting [14]) turned out to be 2.7 mm; in assay [4] (setting [14]) it was 6.4 mm; in assay [5] (setting [14]), 3.4 mm; in assay [6] (setting [14]), 0.0 mm. For the same compound, the “Growth (diameter, mm) Cmpd” value came to 3.5 mm in assay [3] (setting [15]), 7.7 mm in assay [4] (setting [15]), 3.6 mm in assay [5] (setting [15]) and 3.6 mm in assay [6] (setting [15]). Moreover, the “Growth (Severity, 0 to 4) Cmpd + 12% CO2” value is recorded as 0.5 in [8] (Table 11, compound 0.14 mg/L + 12% CO2, evaluated 2 days after treatment, fan first 6 hours, >90% R.H.) and 0.3 in assay [8] (Table 12, compound 0.14 mg/L + 12% CO2, evaluated 2 days after treatment, fan first 6 hours, >90% R.H.). Further, the “Growth (Severity, 0 to 4) Cmpd” value in assay [8] (Table 11, compound alone 0.14 mg/L, evaluated 2 days after treatment, fan first 6 hours, >90% R.H.) came out at 0.9; in assay [8] (Table 12, compound alone 0.14 mg/L, evaluated 2 days after treatment, fan first 6 hours, >90% R.H.), 0.4.
